This assay has as its target T1, human TPO receptor (hTPOR) (Homo sapiens, UniProt P40238).
T1 construct: expressed in transfected cells; host or cells: BaF-B03 (murine IL-3 dependent cell line)
T1 sequence (P40238 26-635): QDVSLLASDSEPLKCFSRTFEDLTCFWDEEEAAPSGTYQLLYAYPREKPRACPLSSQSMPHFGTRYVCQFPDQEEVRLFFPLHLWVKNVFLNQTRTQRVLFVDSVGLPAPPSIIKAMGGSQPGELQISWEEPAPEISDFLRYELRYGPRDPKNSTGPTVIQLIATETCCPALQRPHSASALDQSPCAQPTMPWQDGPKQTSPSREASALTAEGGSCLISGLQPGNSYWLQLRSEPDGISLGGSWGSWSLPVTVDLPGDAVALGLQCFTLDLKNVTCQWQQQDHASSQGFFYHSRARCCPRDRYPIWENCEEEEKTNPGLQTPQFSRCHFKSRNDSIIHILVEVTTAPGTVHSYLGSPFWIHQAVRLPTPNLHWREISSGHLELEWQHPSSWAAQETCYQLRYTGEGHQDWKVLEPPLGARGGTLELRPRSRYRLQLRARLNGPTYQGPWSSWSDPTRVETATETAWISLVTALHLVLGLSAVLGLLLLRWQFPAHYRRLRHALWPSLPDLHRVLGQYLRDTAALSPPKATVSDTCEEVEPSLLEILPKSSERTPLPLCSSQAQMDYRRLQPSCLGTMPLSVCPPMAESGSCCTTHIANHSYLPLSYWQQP
Put plainly: Thrombopoietic activity: proliferation of TPO dependent BaF/hTPOR cells (WST-1, absorbance at 450 nm). The class given is cell-based. The settings on record: 20 h + 4 h WST-1, ED50 = half concentration of the concentration showing the maximum thrombopoietic activity. The gist of the method: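 Proliferation read-out: WST-1 absorbance at 450 nm after 20 h compound exposure plus 4 h reagent, using IL-3-deprived BaF/hTPOR cells (5×10^4 per well) dependent on human TPO receptor signalling. ED50 defined as half the concentration producing maximal activity.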
Background: Tetrazolium dyes change colour on reduction, which living cells bring about.

Data on 4 molecules can be found in US7601746B2 (Shionogi & Co., Ltd., priority 2003, dated 2009).

A word on the EC50: it is the concentration at which the effect is half-maximal. With `COc1c(CCOCCCCF)cccc1-c1csc(NC(=O)c2cc(Cl)c(/C=C(\C)C(=O)O)c(Cl)c2)n1` [Compound B2003, (E)-3-[2,6-dichloro-4-(4-{3-[2-(4-fluorobutyloxy)ethyl]-2-methyloxyphenyl}thiazol-2-ylcarbamoyl)phenyl]-2-methylacrylic acid], where the note is “Table 2”, the EC50 amounted to 22.7 nM.

On to `CCCCOCc1cccc(-c2csc(NC(=O)c3cc(Cl)c(/C=C(\C)C(=O)O)c(Cl)c3)n2)c1OC` [Compound B1995, (E)-3-{4-[4-(3-butyloxymethyl-2-methyloxyphenyl)thiazol-2-ylcarbamoyl]-2,6-dichlorophenyl}-2-methylacrylic acid], for which the EC50 (Table 1) worked out at 10.9 nM. The same measure, in the same setting: with `CCC(CC)COCCc1cccc(-c2csc(NC(=O)c3cc(Cl)c(/C=C(\C)C(=O)O)c(Cl)c3)n2)c1OC` [Compound B1958, (E)-3-[2,6-dichloro-4-(4-{3-[2-(2-ethylbutyloxy)ethyl]-2-methyloxyphenyl}thiazol-2-ylcarbamoyl)phenyl]-2-methylacrylic acid] the figure was 7.57 nM. In the case of `CC(=Cc1c(Cl)cc(C(=O)Nc2nc(-c3cccc(CCCOCCC(C)(C)C)c3F)cs2)cc1Cl)C(=O)O` [Compound B85, 3-[2,6-dichloro-4-(4-[3-[3-(3,3-dimethylbutyloxy)propyl]-2-fluorophenyl]thiazol-2-ylcarbamoyl)phenyl]-2-methylacrylic acid], the half-maximal effective concentration (EC50) (Table 1) is 0.88 nM.
